In patent publication US20090023186A1, “USE OF VALPROIC ACID FOR ENHANCING PRODUCTION OF RECOMBINANT PROTEINS IN MAMMALIAN CELLS” (EXCELLGENE SA, priority 2007, published 2009):

System: CHO DG44 cells
Assay: Transient IgG expression, batch titer by ELISA, VPA concentration series (Example 1)
Format: cell-based, Chinese Hamster
Conditions: for Fold increase over control / Batch titer: IgG, day 5 after transfection; for Batch titer: 37° C.
Description: 10 million suspension-adapted HEK293E cells were resuspended in 0.5 ml of Ex-Cell 293 HEK 293 serum-free medium with 4 mmol/l L-glutamine (Cat. No. 14571C-1000 M; Lot No. 6A0093; SAFC Biosciences, Lenexa, Kans., USA, “Ex-Cell” medium; note: “Ex-Cell” medium-as used herein-refers to a medium comprising 4 mmol/l L-glutamine) in a 50-ml filter tube each (TPP AG, Trasadingen, Switzerland; Cat. No. 87050, Lot 20050174). In a separate set, 10 million suspension-adapted CHO DG44 cells were resuspended in 0.5 ml of ProCHO5 serum-free medium with 4 mmol/[…] hypoxanthine and 0.194 g/l thymidine (BioWhittaker (Lonza), Belgium; Cat. No. BE12-[…]; Lot No. 7 MB0040; “ProCHO5” medium; note: “ProCHO5” medium-as used herein-refers to a medium comprising 4 mmol/[…] hypoxanthine and 0.194 g/l thymidine) in a 50-ml filter tube each (TPP AG, Trasadingen, Switzerland; Cat. No. 87050, Lot 20050174). Then 12.5 μg plasmid DNA at a concentration of 1 μg/μl was added in each tube with the following composition 50% (6.25 μg) p-LC (SEQ ID NO: 1) 50% (6.25 μg) p-HC (SEQ ID NO: 3). Plasmid p-LC comprises the genetic information for the production of the light chain of an IgG antibody, plasmid p-HC comprises the genetic information for the production of the heavy chain of an IgG antibody. The particular vector constructs used in the present invention can also be obtained from the inventors. The inventors can be contacted via e-mail at […]. Moreover, commercial services do exist that produce any desired nucleotide sequence even comprising several kilobase pairs including complete expression cassettes in plasmid backgrounds (e.g., Invitrogen, Carlsbad, USA; Geneart, Germany.) Thus, providing the genetic sequence information of the plasmids should enable one of ordinary skill in the art to order the plasmids of the present invention at one of the commercial services listed. After shortly mixing the DNA with the cells by gentle shaking, 25 μg of 25-kd linear polyethyleneimine (“PEI”; Polysciences, Eppelheim, Germany; [2]) were added at a concentration of 1 μg/μl to each of the tubes. After shortly mixing by gentle shaking, the filter tubes containing the cells together with the DNA and PEI were transferred into an orbital shaker (Kühner Shaker Cabinet ISF-4-W, “Kühner shaker”, Kühner AG, Birsfelden, Switzerland), and the cells were incubated for 4 hours at 37° C. in a 5% CO2 atmosphere under shaking at 180 rpm. After that time, 4.5 ml of Ex-Cell medium were added to each of the filter tubes containing HEK 293 cells and 4.5 ml of Pro-CHO5 were added to each of the filter tubes containing CHO DG44 cells. Then, valproic acid was added to each of the tubes at the corresponding final concentration. The cells then were returned into the Kühner shaker and incubated at 37° C. in a 5% CO2 atmosphere under shaking at 180 rpm. […] The ELISA was performed as published in prior art. In short, Goat anti-human kappa light chain IgG (Biosource) was used for coating the ELISA-plates, and with AP-conjugated goat anti-human gamma chain IgG (Biosource) the synthesized IgG1 was detected. NPP was used as a substrate for the alkaline phosphatase. Absorption was measured at 405 nm against 490 nm using a microplate reader (SPECTRAmaxTM340; Molecular Devices, Palo Alto, Calif., USA).

SMILES: CCCC(CCC)C(=O)O [VPA, valproic acid]
- Fold increase over control (0.05 mmol/l final VPA): 1 fold
- Batch titer (0.05 mmol/l final VPA): 7.4 ± 1.1 mg/L
- Fold increase over control (0.1 mmol/l final VPA): 1.3 fold
- Batch titer (0.1 mmol/l final VPA): 10.0 ± 1.5 mg/L
- Fold increase over control (0.2 mmol/l final VPA): 1.8 fold
- Batch titer (0.2 mmol/l final VPA): 13.7 ± 1.2 mg/L
- Fold increase over control (0.5 mmol/l final VPA): 2.1 fold
- Batch titer (0.5 mmol/l final VPA): 16.3 ± 1.3 mg/L
- Fold increase over control (1 mmol/l final VPA): 1.9 fold
- Batch titer (1 mmol/l final VPA): 14.4 ± 1.2 mg/L
- Fold increase over control (2 mmol/l final VPA): 1.3 fold
- Batch titer (2 mmol/l final VPA): 10.0 ± 0.9 mg/L
- Fold increase over control (3 mmol/l final VPA): 1.0 fold
- Batch titer (3 mmol/l final VPA): 7.4 ± 1.2 mg/L
- optimal final concentration (for batch titer, CHO DG44 cells, day 5): around 0.5 mmol/l
